Measured values taken from PMC11997999, “Uncovering α-Selectivity for Liver X Receptor Agonists for Lipotoxic Cancer Therapies” (Journal of Medicinal Chemistry, 2025).
Where two headings read alike, the source gives them in different places.

Columns and labels:
LXRβ = molecular target: T1, LXRβ (Homo sapiens, UniProt P55055); experiment: LXRβ-specific LXRE-GFP reporter assay in Hep3B cells (NR1H3 knockout); assay type: cell-based; conditions: 48h of treatment, GFP by FACS
T1 construct: To measure the activity of the remaining isoform under treatment; endogenous in cells; host or cells: Hep3B (NR1H3 knockout, LXRE-GFP reporter)
T1 sequence (P55055 1-460): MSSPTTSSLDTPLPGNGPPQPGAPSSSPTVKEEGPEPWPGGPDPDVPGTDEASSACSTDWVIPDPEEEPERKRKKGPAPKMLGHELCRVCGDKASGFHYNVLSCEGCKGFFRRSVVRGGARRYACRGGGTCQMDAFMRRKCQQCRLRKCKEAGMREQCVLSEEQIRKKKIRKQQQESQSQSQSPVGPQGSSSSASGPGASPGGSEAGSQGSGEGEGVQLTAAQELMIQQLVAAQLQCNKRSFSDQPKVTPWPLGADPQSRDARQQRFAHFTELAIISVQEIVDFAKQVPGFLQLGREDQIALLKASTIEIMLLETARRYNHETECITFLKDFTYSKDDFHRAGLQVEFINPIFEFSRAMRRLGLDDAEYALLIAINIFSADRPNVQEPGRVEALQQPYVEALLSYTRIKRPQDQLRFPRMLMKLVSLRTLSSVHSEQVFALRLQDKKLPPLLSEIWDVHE

LXRα LBD (GST) = molecular target: T2, LXRα LBD (GST) (Homo sapiens, UniProt Q13133); experiment: Time-resolved LXR FRET assay (LanthaScreen TR-FRET LXRα Coactivator Assay Kit); assay type: biochemical
T2 construct: 5 nM LXRα LBD (GST); 10 nM LXRβ LBD (GST); purchased ThermoFisher Scientific PV4655
T2 sequence (Q13133 209-447 limits assumed): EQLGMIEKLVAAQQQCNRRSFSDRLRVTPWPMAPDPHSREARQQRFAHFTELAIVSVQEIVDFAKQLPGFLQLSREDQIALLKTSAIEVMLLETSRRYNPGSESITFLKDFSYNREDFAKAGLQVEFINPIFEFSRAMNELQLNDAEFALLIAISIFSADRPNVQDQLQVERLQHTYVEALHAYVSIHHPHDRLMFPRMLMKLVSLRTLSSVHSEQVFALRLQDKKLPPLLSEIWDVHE
Procedure: (§1) The biochemical TR-FRET assays were performed using the LanthaScreen TR-FRET LXRα Coactivator Assay Kit, goat (ThermoFisher Scientific, PV4655), and the LanthaScreen TR-FRET LXRβ assay kit, goat (ThermoFisher Scientific, PV4658), according to the manufacturer’s instructions using the following concentrations: 5 nM LXRα LBD (GST); 10 nM LXRβ LBD (GST); 500 nM fluorescein-TRAP220/DRIP-2; 200 nM fluorescein-D22; 10 nM Tb anti-GST antibody. The TR-FRET signals were measured after 6 h using a TECAN SPARK multimode microplate reader with the following settings: first excitation wavelength: 360 nm (bandwidth 35 nm), first emission wavelength: 485 nm (bandwidth 20 nm); second excitation wavelength: 360 nm (bandwidth 35 nm), second emission wavelength: 535 nm (bandwidth 25 nm); integration time: 200 μs; lag time: 100 μs; settle time: 0 ms.

LXRβ LBD (GST) = molecular target: T3, LXRβ LBD (GST) (Homo sapiens, UniProt P55055); experiment: Time-resolved LXR FRET assay (LanthaScreen TR-FRET LXRβ assay kit); assay type: biochemical
T3 construct: 5 nM LXRα LBD (GST); 10 nM LXRβ LBD (GST); purchased ThermoFisher Scientific PV4658
T3 sequence (P55055 222-460 limits assumed): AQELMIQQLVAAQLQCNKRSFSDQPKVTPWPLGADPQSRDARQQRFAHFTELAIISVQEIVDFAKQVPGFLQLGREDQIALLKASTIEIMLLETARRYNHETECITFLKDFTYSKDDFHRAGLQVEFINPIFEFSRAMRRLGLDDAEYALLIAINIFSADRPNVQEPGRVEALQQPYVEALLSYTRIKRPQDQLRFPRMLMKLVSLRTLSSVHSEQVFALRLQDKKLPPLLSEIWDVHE
Procedure: as §1

LXRα = molecular target: T4, LXRα (Homo sapiens, UniProt Q13133); experiment: LXRα-specific LXRE-GFP reporter assay in Hep3B cells (NR1H2 knockout); assay type: cell-based; conditions: 48h of treatment, GFP by FACS
T4 construct: To measure the activity of the remaining isoform under treatment; endogenous in cells; host or cells: Hep3B (NR1H2 knockout, LXRE-GFP reporter)
T4 sequence (Q13133 1-447): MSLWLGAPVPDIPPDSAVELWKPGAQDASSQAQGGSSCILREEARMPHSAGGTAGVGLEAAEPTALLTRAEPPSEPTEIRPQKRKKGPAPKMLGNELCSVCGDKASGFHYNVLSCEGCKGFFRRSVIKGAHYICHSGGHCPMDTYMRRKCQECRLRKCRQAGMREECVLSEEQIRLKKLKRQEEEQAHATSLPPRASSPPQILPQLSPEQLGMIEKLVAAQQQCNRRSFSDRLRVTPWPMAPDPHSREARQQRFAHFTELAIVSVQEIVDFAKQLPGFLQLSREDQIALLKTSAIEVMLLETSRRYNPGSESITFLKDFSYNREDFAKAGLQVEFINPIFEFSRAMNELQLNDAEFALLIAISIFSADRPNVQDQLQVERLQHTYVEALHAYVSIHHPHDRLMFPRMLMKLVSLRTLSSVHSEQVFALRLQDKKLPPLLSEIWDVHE

[1] = test system: Akt1^Myr; Myc^OE HCC organoids; experiment: Cell viability analysis in HCC organoids (CellTiter-Glo 3D); assay type: cell-based, murine; conditions: 5d, with 4 μM sorafenib
Source text: Finally, we analyzed the efficacy of compound 40 in preclinical treatment studies in three-dimensional liver cancer organoid cultures. HCC organoids driven by myristoylated Akt1 and overexpressed Myc (Akt1^Myr; Myc^OE) were isolated from murine liver tumors and subjected to monotherapies of sorafenib, compound 40, or a combination thereof (Figure 7C). The therapeutic outcome was side-by-side compared with combinatorial therapies comprising the established agonists T0901317 (1) and GW3965 (2). […] Isolation of murine HCC organoid cultures was performed from liver tumors derived from C57BL/6 mice using established protocols.[26] The animal experiments were approved by committees of the regional authority of the state of Baden-Wuerttemberg (Regierungspraesidium Tuebingen, authorization number M15/18G) as appropriate. After digestion, the organoids were embedded in 100% Growth Factor Reduced (GFR) MatrigelTM (Corning) and cultured at 37 °C and 5% CO2 in HCC organoid medium supplemented with nicotinamide (10 mM), N-acetylcystein (1.25 mM), human HGF (50 ng/mL), human FGF-10 (100 ng/mL), human R-Spondin (0.5 μg/mL), forskolin (10 μM), A83- 01 (0.5 μM), murine Noggin (50 ng/mL), gastrin I (10 nM), human BMP-7 (25 ng/mL), human Wnt3a (100 ng/mL), B27 supplement (1×) and N2 supplement (1×). The cultures were split by mechanical dissociation every 3 to 4 days. […] Cell viability was determined after 5 days of treatment using the CellTiter-Glo 3D Cell Viability Assay Kit (Promega). Cell viability of Hep3B, AML12, and BNL CL.2 cells was determined after 5 days of treatment in white 96 well plates (Sarstedt) using the CellTiter-Glo 2.0 Cell Viability Assay Kit (Promega). […] The luminescence signal was measured using an […] M PLEX plate reader (Tecan) and the Tecan i-control software (v3.9.1). […]

Hep3B cells = experiment: Cell viability analysis in Hep3B cells (CellTiter-Glo); assay type: cell-based, human; conditions: 5 d, 2 μM
Procedure: To determine the therapeutic efficacy of compound 40 in HCC cells, we next tested its effect on Hep3B cell viability in combination with the DFG-out Raf inhibitor sorafenib (2 μM).
For organoid treatment studies, digestion of organoids was performed using TrypLE Express (Gibco) supplemented with 100 μg/mL DNaseI and 10.5 μM Y-27632 dihydrochloride (Invitrogen) at 37 °C, and afterward, single-cells were plated in white 96 well plates (Sarstedt) in a mixture of 10% Matrigel (Growth Factor Reduced (GFR) Matrigel, Corning) in culture medium. Cell viability was determined after 5 days of treatment using the CellTiter-Glo 3D Cell Viability Assay Kit (Promega). Cell viability of Hep3B, AML12, and BNL CL.2 cells was determined after 5 days of treatment in white 96 well plates (Sarstedt) using the CellTiter-Glo 2.0 Cell Viability Assay Kit (Promega). AML12 and BNL CL.2 cells were also obtained from the American Type Culture Collection. The luminescence signal was measured using an […] M PLEX plate reader (Tecan) and the Tecan i-control software (v3.9.1). Sodium oleate (Selleckchem) was dissolved in methanol and added to cells at a final concentration of 200 μM.

[2] = 5 nM LXRα LBD (GST), read after 6 h, R^2 of fit given, read-out: TR-FRET activity (EC50) LXRα
[3] = 10 nM LXRβ LBD (GST), read after 6 h, R^2 of fit given, read-out: TR-FRET activity (EC50) LXRβ
[4] = statement made for both isoforms

COc1ccc(NC2=C(c3ccccc3)C(=O)N(Cc3ccccc3)C2=O)cc1 [GSK3987 (3), 1-Benzyl-3-((4-methoxyphenyl)amino)-4-phenyl-1H-pyrrole-2,5-dione, reference compound]
EC50 (LXRβ): 0.248 µM
EC50 (LXRα LBD (GST); [2]): 0.154 µM
EC50 (LXRβ LBD (GST); [3]): 0.18 µM
EC50 (LXRα): 0.099 µM

CC(C)(C)N1C(=O)C(Nc2ccc(N3CCCCC3)cc2)=C(c2ccccc2)C1=O [Compound 51, 1-(tert-Butyl)-3-phenyl-4-((4-(piperidin-1-yl)phenyl)amino)-1H-pyrrole-2,5-dione]
EC50 (LXRβ): 0.113 µM
EC50 (LXRα LBD (GST); [2]): 0.036 µM
EC50 (LXRβ LBD (GST); [3]): 0.156 µM
EC50 (LXRα): 0.019 µM

NC1CCN(c2ccc(NC3=C(c4ccccc4)C(=O)N(Cc4ccccc4)C3=O)cc2)CC1 [Compound 46, 3-((4-(4-Aminopiperidin-1-yl)phenyl)amino)-1-benzyl-4-phenyl-1H-pyrrole-2,5-dione]
EC50 (LXRβ): 1.25 µM
EC50 (LXRα LBD (GST); [2]): 0.63 µM
EC50 (LXRβ LBD (GST); [3]): 0.12 µM
EC50 (LXRα): 1.48 µM

O=C(O)Cc1cccc(OCCCN(Cc2cccc(C(F)(F)F)c2Cl)CC(c2ccccc2)c2ccccc2)c1 [GW3965 (2), reference compound]
EC50 (LXRβ): 0.04 µM
therapeutic efficacy (cell viability) in combination with sorafenib [1]: dose-dependent response
EC50 (LXRα LBD (GST); [2]): 0.087 µM
EC50 (LXRβ LBD (GST); [3]): 0.024 µM
EC50 (LXRα): 0.32 µM

CNC(=O)c1cc(Oc2ccc(NC(=O)Nc3ccc(Cl)c(C(F)(F)F)c3)cc2)ccn1 [sorafenib, reference compound]
therapeutic effect on cell viability, sorafenib monotherapy (Hep3B cells): only a low therapeutic effect

O=S(=O)(c1ccccc1)N(CC(F)(F)F)c1ccc(C(O)(C(F)(F)F)C(F)(F)F)cc1 [T0901317 (1)]
therapeutic efficacy (cell viability) in combination with sorafenib [1]: dose-dependent response

COc1ccc(NC2=C(c3ccccc3)C(=O)N(Cc3ccc(C)cc3)C2=O)cc1 [Compound 17, 3-((4-Methoxyphenyl)amino)-1-(4-methylbenzyl)-4-phenyl-1H-pyrrole-2,5-dione]
EC50 (LXRα LBD (GST); [2]): 0.579 µM
EC50 (LXRβ LBD (GST); [3]): 0.332 µM

COc1ccc(CN2C(=O)C(Nc3ccc(OC)cc3)=C(c3ccccc3)C2=O)cc1 [Compound 19, 1-(4-Methoxybenzyl)-3-((4-methoxyphenyl)amino)-4-phenyl-1H-pyrrole-2,5-dione]
EC50 (LXRα LBD (GST); [2]): 0.518 µM
EC50 (LXRβ LBD (GST); [3]): 0.592 µM

O=C(c1ccc(NC2=C(c3ccccc3)C(=O)N(Cc3ccccc3)C2=O)cc1)N1CCCCC1 [Compound 50, 1-Benzyl-3-phenyl-4-((4-(piperidine-1-carbonyl)phenyl)amino)-1H-pyrrole-2,5-dione]
EC50 (LXRα LBD (GST); supplement list of compounds, LXRα, unit inferred, read-out: FRET activity a): 0.074 µM
EC50 (LXRβ LBD (GST); supplement list of compounds, (LXRβ), unit inferred, read-out: FRET activity b): 0.225 µM

COc1ccc(OC2=C(c3ccccc3)C(=O)N(Cc3ccccc3)C2=O)cc1 [Compound 26, 1-Benzyl-3-(4-methoxyphenoxy)-4-phenyl-1H-pyrrole-2,5-dione]
EC50 (LXRα LBD (GST); [2]): > 3 µM
TR-FRET activity on LXRα, in words (LXRα LBD (GST); [4]): completely lost activity
EC50 (LXRβ LBD (GST); [3]): > 3 µM
TR-FRET activity on LXRβ, in words (LXRβ LBD (GST); [4]): completely lost activity
